Data on two compounds can be found in publication PMC11143312, “Antioxidant, anti-amylase, anti-lipase, and efficiency of Satureja fatty acid on the anti-inflammatory parameters in lipopolysaccharide-stimulated macrophage through Nrf2/NF-kB/NADH oxidase pathway” (Scientific Reports, 2024).

≈ marks a conversion by molar mass, not a printed value.

The subject of assay [1] is T1, lipase (EC 3.1.1.3, from Saccharomyces cerevisiae).
T1 construct: gene TGL2; discussion speaks of pancreatic lipase, but the assay used the yeast-labelled enzyme
Description: pNPB hydrolysis at […] nm, Lineweaver-Burk plot. To be noted: no inhibitor; unit printed as µg, not a concentration; pNPB 0.0–10 mg/mL. The class given is biochemical.

The target of assay [2] is T1, lipase (EC 3.1.1.3, from Saccharomyces cerevisiae). Description: p-nitrophenyl butyrate hydrolysis, absorbance at […] nm. Format: biochemical. The note with it: 30 min pre-incubation, 37 °C; substrate pNPB; positive control.

For `CCCC(=O)Oc1ccc([N+](=O)[O-])cc1` [p-nitrophenyl butyrate], in assay [1], the “Km” value stood at 5.08 ± 0.23 µg.

For `CCCCCCCCCCC[C@@H](C[C@@H]1OC(=O)[C@H]1CCCCCC)OC(=O)[C@H](CC(C)C)NC=O` [orlistat], the IC50 – broadly, the midpoint of a concentration-inhibition curve – in assay [2] was 213 ± 5.0 µg/mL (≈ 430 µM).
